Test results from PMC2174402 (Environmental Health Perspectives, 2007).
pEC50, pIC50: −log10 of the molar value. Several values for one entry are separate records, joined by “and”; a condition that tells them apart may be missing. Equal values may be shown once. Read-outs that look alike come from different tables or passages of the source. Marks after values point to notes of the source that are not given here.

How the values were obtained:
[1] = molecular target: T1, aromatase (CYP19) (Homo sapiens, UniProt P11511); experiment: Aromatase activity in JEG-3 choriocarcinoma cells; format: cell-based; conditions: for LOEC, aromatase (inhibited activity) / MOEC, aromatase (inhibited activity) / concentration (range) of significant aromatase inhibition: 18 hr exposure; for Maximum % (maximum down-regulation / maximum inhibition, MI), aromatase: control 10 nM 4-AD set to 100%, at the MOEC
T1 sequence (P11511 1-503): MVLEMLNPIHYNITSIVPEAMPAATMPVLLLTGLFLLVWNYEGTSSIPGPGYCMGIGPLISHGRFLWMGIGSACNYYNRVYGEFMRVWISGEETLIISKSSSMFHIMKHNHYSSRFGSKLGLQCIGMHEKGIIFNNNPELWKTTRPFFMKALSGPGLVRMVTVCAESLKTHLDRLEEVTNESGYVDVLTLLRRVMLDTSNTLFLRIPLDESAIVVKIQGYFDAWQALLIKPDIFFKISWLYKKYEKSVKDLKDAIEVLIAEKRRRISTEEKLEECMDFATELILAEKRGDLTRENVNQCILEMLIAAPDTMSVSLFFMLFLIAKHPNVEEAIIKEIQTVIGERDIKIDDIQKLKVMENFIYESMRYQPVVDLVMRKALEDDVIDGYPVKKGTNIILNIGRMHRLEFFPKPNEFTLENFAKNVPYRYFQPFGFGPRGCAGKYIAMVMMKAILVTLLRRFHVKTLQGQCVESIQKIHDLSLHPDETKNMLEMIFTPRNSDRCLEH

[2] = molecular target: T2, human estrogen receptor (ER) (Homo sapiens, UniProt P03372); experiment: cell-based; format: cell-based; conditions: for LOEC (lowest effect concentration), ER / MOEC (maximal effect concentration), ER: 24 hr
T2 sequence (P03372 1-595): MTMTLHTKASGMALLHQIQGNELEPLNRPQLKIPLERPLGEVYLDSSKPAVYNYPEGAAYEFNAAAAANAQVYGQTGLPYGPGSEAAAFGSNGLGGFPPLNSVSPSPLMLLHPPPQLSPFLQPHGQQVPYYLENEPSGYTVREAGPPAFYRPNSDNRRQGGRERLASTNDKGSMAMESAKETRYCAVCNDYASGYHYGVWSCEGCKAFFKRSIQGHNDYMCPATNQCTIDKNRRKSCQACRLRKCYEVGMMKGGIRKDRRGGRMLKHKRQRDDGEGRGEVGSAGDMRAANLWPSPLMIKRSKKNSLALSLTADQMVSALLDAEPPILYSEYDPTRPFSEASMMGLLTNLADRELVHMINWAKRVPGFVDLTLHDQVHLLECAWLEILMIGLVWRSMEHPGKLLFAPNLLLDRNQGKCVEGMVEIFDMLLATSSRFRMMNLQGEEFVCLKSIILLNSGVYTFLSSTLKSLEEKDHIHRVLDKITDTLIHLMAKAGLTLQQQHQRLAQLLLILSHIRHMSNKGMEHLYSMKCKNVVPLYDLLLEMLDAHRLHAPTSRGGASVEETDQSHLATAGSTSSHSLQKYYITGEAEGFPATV

[3] = molecular target: T3, human androgen receptor (AR) (Homo sapiens, UniProt P10275); experiment: cell-based; format: cell-based
T3 sequence (P10275 1-920): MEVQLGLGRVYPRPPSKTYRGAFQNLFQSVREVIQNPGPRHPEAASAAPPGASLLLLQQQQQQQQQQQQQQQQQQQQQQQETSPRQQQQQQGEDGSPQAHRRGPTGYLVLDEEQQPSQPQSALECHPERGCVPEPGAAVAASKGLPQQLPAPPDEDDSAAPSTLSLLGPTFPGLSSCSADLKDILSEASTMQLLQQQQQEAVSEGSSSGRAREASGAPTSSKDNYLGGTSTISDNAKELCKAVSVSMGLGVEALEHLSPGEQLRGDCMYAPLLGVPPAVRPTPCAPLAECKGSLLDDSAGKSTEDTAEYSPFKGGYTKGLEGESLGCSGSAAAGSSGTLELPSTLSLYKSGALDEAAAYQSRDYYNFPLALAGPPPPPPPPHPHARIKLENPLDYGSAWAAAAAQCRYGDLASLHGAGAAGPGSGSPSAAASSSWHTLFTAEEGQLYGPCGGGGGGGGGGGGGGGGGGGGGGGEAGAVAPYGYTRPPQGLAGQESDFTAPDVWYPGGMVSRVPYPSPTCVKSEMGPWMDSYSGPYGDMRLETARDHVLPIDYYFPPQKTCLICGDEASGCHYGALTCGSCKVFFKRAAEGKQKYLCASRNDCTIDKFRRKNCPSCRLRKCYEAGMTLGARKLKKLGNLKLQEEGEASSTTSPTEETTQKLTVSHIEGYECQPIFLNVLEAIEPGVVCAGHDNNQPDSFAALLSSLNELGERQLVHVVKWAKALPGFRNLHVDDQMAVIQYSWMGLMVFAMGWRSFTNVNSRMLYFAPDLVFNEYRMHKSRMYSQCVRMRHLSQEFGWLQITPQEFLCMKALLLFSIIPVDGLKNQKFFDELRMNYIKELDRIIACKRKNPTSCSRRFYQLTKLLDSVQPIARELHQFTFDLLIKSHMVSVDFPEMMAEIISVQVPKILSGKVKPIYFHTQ

[4] = tested on: CHO cells; experiment: Cytotoxicity in the AR assay; format: cell-based, Chinese hamster; conditions: for Cytotox (M), AR assay: pSVAR13
[5] = tested on: Hepa1.12cR cells; experiment: Cell cytotoxicity / proliferation for the AhR-CALUX assay
[6] = molecular target: aryl hydrocarbon receptor (AhR) (Mus musculus, UniProt P30561); experiment: AhR-CALUX
[7] = tested on: MVLN cells
[8] = tested on: JEG-3 cells; experiment: Cell cytotoxicity for the aromatase assay; format: cell-based, human
[9] = co-exposure with 0.1 nM R1881, CHO cells
[10] = chemical alone, Hepa1.12cR cells

Sequence of aryl hydrocarbon receptor (AhR) (P30561 10-805 limits assumed): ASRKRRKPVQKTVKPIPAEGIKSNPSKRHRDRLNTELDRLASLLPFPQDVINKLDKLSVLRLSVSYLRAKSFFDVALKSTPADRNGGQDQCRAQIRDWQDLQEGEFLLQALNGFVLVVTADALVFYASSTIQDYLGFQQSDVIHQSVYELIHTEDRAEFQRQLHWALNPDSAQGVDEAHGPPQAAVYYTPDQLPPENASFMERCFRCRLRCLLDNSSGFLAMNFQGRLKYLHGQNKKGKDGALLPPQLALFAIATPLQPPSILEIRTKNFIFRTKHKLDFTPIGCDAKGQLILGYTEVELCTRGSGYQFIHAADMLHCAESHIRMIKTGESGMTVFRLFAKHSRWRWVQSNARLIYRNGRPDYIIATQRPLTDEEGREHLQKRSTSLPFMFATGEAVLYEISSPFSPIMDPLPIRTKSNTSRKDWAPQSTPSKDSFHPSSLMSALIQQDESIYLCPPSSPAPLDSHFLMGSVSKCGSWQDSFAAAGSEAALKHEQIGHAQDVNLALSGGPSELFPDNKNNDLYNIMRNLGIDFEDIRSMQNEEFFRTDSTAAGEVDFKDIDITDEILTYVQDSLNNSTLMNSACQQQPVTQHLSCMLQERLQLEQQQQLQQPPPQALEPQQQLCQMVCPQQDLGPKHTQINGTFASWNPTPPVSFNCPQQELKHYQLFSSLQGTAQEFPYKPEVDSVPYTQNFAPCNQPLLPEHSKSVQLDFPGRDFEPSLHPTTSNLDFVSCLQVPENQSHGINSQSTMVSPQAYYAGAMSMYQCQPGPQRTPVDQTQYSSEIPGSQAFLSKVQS
Sequence of aryl hydrocarbon receptor (AhR) (P53762 whole entry partner): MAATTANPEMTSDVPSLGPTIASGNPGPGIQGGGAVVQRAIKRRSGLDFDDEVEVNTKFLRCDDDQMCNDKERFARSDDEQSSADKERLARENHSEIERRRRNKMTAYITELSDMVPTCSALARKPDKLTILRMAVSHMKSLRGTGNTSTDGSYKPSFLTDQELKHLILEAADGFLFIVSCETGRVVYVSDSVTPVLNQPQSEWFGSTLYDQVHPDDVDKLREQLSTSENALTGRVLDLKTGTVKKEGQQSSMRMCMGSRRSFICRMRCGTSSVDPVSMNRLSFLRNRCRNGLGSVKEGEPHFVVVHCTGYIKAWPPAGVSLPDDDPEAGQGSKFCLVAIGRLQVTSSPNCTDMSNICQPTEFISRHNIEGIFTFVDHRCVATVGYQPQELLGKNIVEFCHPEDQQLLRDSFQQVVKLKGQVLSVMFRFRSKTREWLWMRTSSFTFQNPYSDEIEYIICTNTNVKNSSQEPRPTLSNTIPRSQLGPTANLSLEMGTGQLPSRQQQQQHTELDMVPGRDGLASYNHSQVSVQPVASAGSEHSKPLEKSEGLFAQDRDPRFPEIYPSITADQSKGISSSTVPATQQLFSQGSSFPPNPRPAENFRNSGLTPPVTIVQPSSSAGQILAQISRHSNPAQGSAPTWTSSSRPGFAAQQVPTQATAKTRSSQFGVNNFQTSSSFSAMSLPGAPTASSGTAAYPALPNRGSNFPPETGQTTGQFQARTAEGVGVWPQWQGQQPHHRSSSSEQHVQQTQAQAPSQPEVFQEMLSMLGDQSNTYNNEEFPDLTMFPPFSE

In the case of C[C@]12CCC(=O)C(O)=C1CC[C@@H]1[C@@H]2CC[C@]2(C)C(=O)CC[C@@H]12 [4-AOD, 4-androsten-4-ol-3,17-dione, reference compound], the pEC50 [1] was 8.22, the pIC50 [1] was 8.22 and the “EC100 of aromatase inhibitor control” value ([1]; JEG-3 cells) was 10 µM. For the same compound, the “LOEC, aromatase (inhibited activity)” value ([1]; JEG-3 cells) was 1 nM, the “MOEC, aromatase (inhibited activity)” value ([1]; JEG-3 cells) was 100 µM and the “REP (relative potency), aromatase” value ([1]; REP-aromatase = LOEC 4-AOD/LOEC test compound) was 1. The “Maximum % (maximum down-regulation / maximum inhibition, MI), aromatase” value [1] was 100%.
CC(C)(c1ccc(O)cc1)c1ccc(O)cc1 [BPA, Bisphenol A] was tested, and the “response on co-treatment with 25 pM E2 at 50 μM” value [2] was “significant decreased response”, the “concentration range of ER-mediated (estrogenic) response” value ([2]; chemical alone, MVLN cells) was 10^−8 to 5 × 10^−5 M and the “LOEC (lowest effect concentration), ER” value ([2]; chemical alone, MVLN cells) was 100 nM. The “MOEC (maximal effect concentration), ER” value ([2]; chemical alone, MVLN cells) was 10 µM, the pIC50 [3] was 6.00 and the “concentration range of significant antiandrogenic effect” value ([3]; co-exposure with 0.1 nM R1881) was 0.60 to 20 µM. The “LOEC, AR (inhibited activity)” value [3, 9] was 600 nM, the “MOEC, AR (inhibited activity)” value [3, 9] was 20 µM and the “Maximum % (maximum down-regulation / maximum inhibition, MI), AR” value ([3]; control inducer 0.1 nM R1881 set to 100%) was 90%. The “LOEC, aromatase (inhibited activity)” value ([1]; JEG-3 cells) was 100000 nM, the “MOEC, aromatase (inhibited activity)” value ([1]; JEG-3 cells) was 100 µM and the “concentration (range) of significant aromatase inhibition” value ([1]; JEG-3 cells) was 10^−4 M. For the same compound, the “Maximum % (maximum down-regulation / maximum inhibition, MI), aromatase” value [1] was 59%, the “concentrations of cytotoxicity, AR assay” value [4] was greater than 40 µM and the “Cytotox (M), AR assay” value [4] was greater than 4e-05 M. For the same compound, the “Cytotox (M), AhR assay” value [5] was > 10^−4 M, the “concentration of decreased TCDD-induced AhR activity” value [6] was 10^−4 M and the “concentration (range) of decreased AhR activity, alone” value ([6]; chemical alone) was 5 × 10^−5 to 10^−4 M. For the same compound, the “LOEC, AhR (inhibited activity)” value ([6]; inhibited activity) was 5 × 10^−5 ^d M.
With Clc1cc2c(cc1Cl)Oc1cc(Cl)c(Cl)cc1O2 [TCDD, 2,3,7,8-tetrachlorodibenzo-p-dioxin, reference compound] the “AhR-CALUX activity relative to solvent control” value ([6]; 60 pM TCDD alone, 0.1% DMSO set to 1, mean ± SD) was 14.84 ± 6.26 and 13.89 ± 7.32, the “LOEC, AhR (increased activity)” value [6, 10] was 0.002 nM and the “MOEC, AhR (increased activity)” value [6, 10] was 10 nM. For the same compound, the “REP (relative potency), AhR” value ([6]; relative to TCDD) was 1.
For CCCCCCCCCc1ccc(O)cc1 [nNP, 4-n-nonylphenol], the pEC50 [2] was 5.05, the “concentration giving further increase of the 25 pM E2-induced activity level” value [2] was 5 × 10^−6 M and the “LOEC (lowest effect concentration), ER” value ([2]; chemical alone, MVLN cells) was 10 nM. For the same compound, the “MOEC (maximal effect concentration), ER” value ([2]; chemical alone, MVLN cells) was 10 µM, the “LOEC, aromatase (inhibited activity)” value ([1]; JEG-3 cells) was 1 nM and the “MOEC, aromatase (inhibited activity)” value ([1]; JEG-3 cells) was 10 µM. The “concentration (range) of significant aromatase inhibition” value ([1]; JEG-3 cells) was 10^−9–10^−5 M, the “Maximum % (maximum down-regulation / maximum inhibition, MI), aromatase” value [1] was 71% and the “concentrations of cytotoxicity, AR assay” value [4] was greater than 40 µM. The “Cytotox (M), AR assay” value [4] was greater than 4e-05 M, the “Cytotox (M), ER assay” value [7] was 2.5e-05 M and the “concentration at which cytotoxicity was observed, ER assay” value [7] was 25 µM. The “LOEC, AhR (increased activity)” value [6, 10] was 50 nM and the “concentration of decreased TCDD-induced AhR activity” value ([6]; co-treatment with TCDD-EC50 (60 pM)) was 10^−4 M.
With CCCCCCCCc1ccc(O)cc1 [nOP, 4-n-octylphenol] the “Cytotox (M), AR assay” value [4] was greater than 2e-05 M, the “Cytotox (M), aromatase assay” value [8] was 10^−4 M and the “Cytotox (M), ER assay” value [7] was 5e-05 M. The “Cytotox (M), AhR assay” value [5] was > 10^−4 M.
